Results from ChEMBL document CHEMBL1152314, “Antineoplastic agents. 565. Synthesis of combretastatin D-2 phosphate and dihydro-combretastatin D-2” (J Nat Prod, 2009).
≈ marks a conversion by molar mass, not a printed value. Calls of active or inactive are those of the source. No cut-off for these calls is given here.

Experiments:
P388 = test: Cytotoxicity against mouse P388 cells; type: functional; details: read-out: ED50 (the source's name)
[1] = Cytotoxicity against human breast cancer cells; type: functional; details: Cancer cell lines
[2] = Cytotoxicity against human brain cancer cells; type: functional; details: Cancer cell lines
[3] = Cytotoxicity against human pancreatic cancer cells; type: functional; details: Cancer cell lines
[4] = Cytotoxicity against human lung cancer cells; type: functional; details: Cancer cell lines
[5] = Cytotoxicity against human prostate cancer cells; type: functional; details: Cancer cell lines
[6] = Solubility in water at 25 degC; type: physicochemical
[7] = Cytotoxicity against human colon cancer cells; type: functional; details: Cancer cell lines
[8] = Inhibition of tubulin polymerization
Streptococcus pneumoniae = test: Antimicrobial activity against Streptococcus pneumoniae ATCC 6303; type: functional, organism-based
Enterobacter cloacae = test: Antimicrobial activity against Enterobacter cloacae ATCC 13047; type: functional, organism-based
Staphylococcus aureus = test: Antimicrobial activity against Staphylococcus aureus ATCC 29213; type: functional, organism-based
Micrococcus luteus = test: Antimicrobial activity against Micrococcus luteus Presque Isle 456; type: functional, organism-based
Escherichia coli = test: Antimicrobial activity against Escherichia coli ATCC 25922; type: functional, organism-based
Enterococcus faecalis = test: Antimicrobial activity against Enterococcus faecalis ATCC 29212; type: functional, organism-based
Candida albicans = test: Antimicrobial activity against Candida albicans ATCC 90028; type: functional, organism-based
Neisseria gonorrhoeae = test: Antimicrobial activity against Neisseria gonorrhoeae ATCC 49226; type: functional, organism-based
Cryptococcus neoformans = test: Antimicrobial activity against Cryptococcus neoformans ATCC 90112; type: functional, organism-based
[9] = tested on: Stenotrophomonas maltophilia; test: Antimicrobial activity against Stenotrophomonas maltophilia ATCC 13637; type: functional, organism-based

Row | Structure (SMILES) | EC50 (P388) | GI50 [1] | GI50 [2] | GI50 [3] | GI50 [4] | GI50 [5] | GI50 [7] | other results
1 | O=C(CCc1ccc(OCc2ccccc2)c(O)c1)OC/C=C\c1ccc(Br)cc1 | > 100 µg/mL |  |  |  |  |  |  | 
2 | COc1ccc(CCC(=O)OC/C=C\c2ccc(F)c([N+](=O)[O-])c2)cc1O | 27 µg/mL (≈ 71.9 µM) |  |  |  |  |  |  | 
3 | O=C1CCc2ccc(OP(=O)([O-])[O-])c(c2)Oc2ccc(cc2)/C=C\CO1.[K+].[K+] |  | 34.5 µg/mL | 45.2 µg/mL | 40.1 µg/mL | 27.8 µg/mL | 14.4 µg/mL | 40.6 µg/mL | solubility ([6]; buffer): > 50 mg/mL
4 | COc1ccc(/C=C\c2cc(OC)c(OC)c(OC)c2)cc1O [COMBRETASTATIN A4] | 0.0034 µg/mL (≈ 0.0107 µM) |  |  |  |  |  |  | 
5 | O=C1CCc2ccc(OP(=O)([O-])[O-])c(c2)Oc2ccc(cc2)/C=C\CO1.[Na+].[Na+] | 23.9 µg/mL | 30.5 µg/mL | 36.3 µg/mL | 22.1 µg/mL | 13.3 µg/mL | 18.2 µg/mL | 25.5 µg/mL | solubility ([6]; buffer): > 70 mg/mL
6 | O=C1CCc2ccc(OCc3ccccc3)c(c2)Oc2ccc(cc2)CCCO1 | > 100 µg/mL |  |  |  |  |  |  | 
7 | O=C1CCc2ccc(OP(=O)([O-])[O-])c(c2)Oc2ccc(cc2)/C=C\CO1.[Li+].[Li+] | 27.1 µg/mL | 26.1 µg/mL | 37.9 µg/mL | 35.9 µg/mL | 14.4 µg/mL | 4.3 µg/mL | 27.5 µg/mL | solubility ([6]; buffer): 20 mg/mL
8 | COc1ccc(C[C@@H](O)c2cc(OC)c(OC)c(OC)c2)cc1O [COMBRETASTATIN] | 0.011 µg/mL (≈ 0.0329 µM) |  |  |  |  |  |  | IC50 [8]: 5 µM
9 | O=C1CCc2ccc(OCc3ccccc3)c(c2)Oc2ccc(cc2)/C=C\CO1 | > 100 µg/mL |  |  |  |  |  |  | 
10 | O=C1CCc2ccc(O)c(c2)Oc2ccc(cc2)[C@H]2O[C@@H]2CO1 | 3.3 µg/mL (≈ 10.6 µM) |  |  |  |  |  |  | IC50 [8]: > 40 µM
11 | O=C1CCc2ccc(O)c(c2)Oc2ccc(cc2)/C=C\CO1 | 5.2 µg/mL (≈ 17.5 µM) | 6.6 µg/mL (≈ 22.3 µM) | 4.7 µg/mL (≈ 15.9 µM) | 4.8 µg/mL (≈ 16.2 µM) | 6 µg/mL (≈ 20.2 µM) | 2.7 µg/mL (≈ 9.11 µM) | > 10 µg/mL | Activity (Streptococcus pneumoniae): inactive; Activity (Enterobacter cloacae): inactive; Activity (Staphylococcus aureus): inactive; Activity (Micrococcus luteus): inactive; Activity (Escherichia coli): inactive; IC50 [8]: > 40 µM; Activity (Enterococcus faecalis): inactive; Activity (Candida albicans): inactive; Activity (Neisseria gonorrhoeae): inactive; Activity (Cryptococcus neoformans): inactive; solubility ([6]; buffer): 0.5 mg/mL (≈ 1690 µM); Activity [9]: inactive
12 | O=C1CCc2ccc(O)c(c2)Oc2ccc(cc2)CCCO1 [CORNICULATOLIDE A] | > 100 µg/mL |  |  |  |  |  |  | Activity (Streptococcus pneumoniae): inactive; Activity (Enterobacter cloacae): inactive; Activity (Staphylococcus aureus): inactive; Activity (Micrococcus luteus): inactive; Activity (Escherichia coli): inactive; Activity (Enterococcus faecalis): inactive; Activity (Candida albicans): inactive; Activity (Neisseria gonorrhoeae): inactive; Activity (Cryptococcus neoformans): inactive; Activity [9]: inactive
13 | COc1ccc2cc1Oc1ccc(cc1)/C=C\COC(=O)CC2 | 8.1 µg/mL (≈ 26.1 µM) | 0.83 µg/mL (≈ 2.67 µM) | 2.2 µg/mL (≈ 7.09 µM) | 7.3 µg/mL (≈ 23.5 µM) | 6.6 µg/mL (≈ 21.3 µM) | 5.6 µg/mL (≈ 18 µM) | 9.4 µg/mL (≈ 30.3 µM) | 
14 | COc1ccc(CCC(=O)OC/C=C\c2ccc(Br)cc2)cc1O | > 100 µg/mL | 16.4 µg/mL (≈ 41.9 µM) | 18.5 µg/mL (≈ 47.3 µM) | 16.4 µg/mL (≈ 41.9 µM) | 16.5 µg/mL (≈ 42.2 µM) | 8.9 µg/mL (≈ 22.7 µM) | 17.1 µg/mL (≈ 43.7 µM) | 
15 | C1COCCN1.C1COCCN1.O=C1CCc2ccc(OP(=O)(O)O)c(c2)Oc2ccc(cc2)/C=C\CO1 | 86.2 µg/mL | > 10 µg/mL | > 10 µg/mL | > 10 µg/mL | > 10 µg/mL | > 10 µg/mL | > 10 µg/mL | solubility ([6]; water, read-out: solubility): 5 mg/mL
16 | COc1ccc(CCC(=O)OCCCc2ccc(Br)cc2)cc1O | > 100 µg/mL |  |  |  |  |  |  | 
17 | O=C(CCc1ccc(OCc2ccccc2)c(O)c1)OC/C=C\c1ccc(F)c([N+](=O)[O-])c1 | > 100 µg/mL |  |  |  |  |  |  | 
